In patent US20240059740A1, “CYCLIC PEPTIDES AND USES THEREOF” (PRE[…] INC., priority 2020, published 2024):

What was measured:
[1] = molecular target: T1, recombinant MMP-2 (Homo sapiens, UniProt P08253); assay: MMP-2 Inhibitor Screening Assay Kit (colorimetric); assay type: biochemical; conditions: lower value = higher inhibitory activity
T1 construct: purchased ab139446
T1 sequence (P08253 110-660): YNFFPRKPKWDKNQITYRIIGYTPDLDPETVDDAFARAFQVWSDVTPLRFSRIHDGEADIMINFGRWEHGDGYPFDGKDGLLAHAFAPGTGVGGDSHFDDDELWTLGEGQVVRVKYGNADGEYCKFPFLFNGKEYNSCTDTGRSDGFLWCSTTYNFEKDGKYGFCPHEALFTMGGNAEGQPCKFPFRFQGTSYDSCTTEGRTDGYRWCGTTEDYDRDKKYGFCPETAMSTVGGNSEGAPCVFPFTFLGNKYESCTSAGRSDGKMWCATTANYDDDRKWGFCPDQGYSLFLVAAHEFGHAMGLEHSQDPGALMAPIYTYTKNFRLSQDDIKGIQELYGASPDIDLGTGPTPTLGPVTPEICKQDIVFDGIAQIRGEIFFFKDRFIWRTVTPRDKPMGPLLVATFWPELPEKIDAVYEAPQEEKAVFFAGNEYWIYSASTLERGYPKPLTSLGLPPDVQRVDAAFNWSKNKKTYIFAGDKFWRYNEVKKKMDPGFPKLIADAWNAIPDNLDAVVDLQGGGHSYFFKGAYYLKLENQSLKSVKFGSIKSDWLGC
Protocol: MMP-2 is an important target for inhibitor screening due to its involvement in cancer growth, angiogenesis, and metastasis. The MMP-2 screening assay was carried out with a commercially available MMP-2 Inhibitor Screening Assay Kit (Colorimetric, Catalog: ab139446) based on the manufacturers protocol. This assay is based on quantification of recombinant MMP-2 activity using a colorimetric assay (MMP-2 degrades a chromogenic substrate). The assay provides NNGH (N-isobutyl-N-(4-methoxyphenylsulfonyl) glycyl hydroxamic acid), a small molecule inhibitor, as a positive control (NNGH). […] Each determination was run in duplicate.
% Inhibition rate=(Vinhibitor/Vcontrol)×100
Briefly, MMP Substrate and MMP Inhibitor were warmed to room temperature to thaw DMSO. MMP Inhibitor (NNGH), MMP-2 substrate and MMP-2 enzyme were diluted with assay buffer to required concentration. 20 μL of MMP-2 enzyme and MMP-2 inhibitor (peptides, Chlorotoxin and NNGH) was added, then 50 μL of assay buffer was added and the reaction mixture incubated at 37° C. for 1 h. After incubation, 10 μL of MMP Substrate was added to start reaction. The reactions were continuously read at 412 nm in a microplate reader. Data was recorded at 1 min. time intervals for 10 to 20 min. The data as was plotted as optical density (OD) versus time for each sample. The reaction velocity (V) was obtained in OD/min: determine the slope of a line fit to the linear portion of the data plot using an appropriate routine. Then using the equation above the inhibitor % activity remaining was calculated. The control was without inhibitor.

[2] = tested on: U251 cells; assay: BME cell invasion assay, U251; assay type: cell-based, human; conditions: 1 μM, 24 h
Protocol: (§1) To assess whether the ability of SEQ ID NO.1 to inhibit MMP-2 activity and, to a lesser extent, reduce the production of matrix proteinases and downregulate the expression of EMT markers, was of functional consequence in reducing the invasiveness of the GBM cells, the ability of the peptide was tested at the concentrations of 1, 10 and 100 μM (none of which are toxic to cells) to inhibit invasion of the GBM cells through a basement membrane. This assay, described in more detail below, is an in vitro surrogate for measurement of the in vivo invasion by tumour cells of their environment.
(§2) The cell invasion assay employs a simplified Boyden chamber-like design that consists of two chambers separated by a filter (an 8 μm polycarbonate (PC) membrane) coated with basement membrane or different extracellular matrix components. The cell suspension is placed in the top chamber and incubated in the presence of test media containing specific chemo-attractants in the bottom chamber. Cells migrate from the top chamber to the bottom of the filter by degrading the coating over the filter pores. Detection of cell invasion is quantified using Calcein AM. Cell dissociation/Calcein AM solution is placed in the bottom chamber to dissociate the migrating cells from the filter. Calcein AM is internalized by the cells, and intracellular-esterases cleave the aceto-methylester (AM) moiety. Free Calcein fluoresces brightly and is used to quantitate the number of cells that have invaded or migrated by comparison with a standard curve (In Vitro Technologies Pty Ltd, (https://lifescience.invitro.com.au/brands/r-and-d-systems/).
(§3) The filter was coated with PathClear® growth factor reduced BME. The selected peptides were applied to the cells in both upper and lower wells to make sure the concentration of peptides were the same and the chemoattractant was serum at a concentration of 2% (for adherent U87 & U251 cells) or growth factor mix required in the medium (for non- adherent, 081024 oncospheres).
(§4) Cell invasion was determined using CultureCoat® 96 Well Medium BME Cell Invasion assay. Briefly, the cells were pre-starved 24 h before harvest. Then seeding 25,000 per well of cell in the upper chamber with serum free medium together different concentration of peptide. The bottom chamber also added different concentration of peptides with 2% (V/V) serum for GBM adherent cells or growth factor mix for neurosphere cells as chemoattractant. After 24 h incubation, the invading cells were measured by Calcein AM and calculated based on standard curve.
(§5) The results are shown in Table 12, the results are expressed as % inhibition.

[3] = tested on: 081024 cells; assay: BME cell invasion assay, 081024; assay type: cell-based, human; conditions: 1 μM, 24 h
Protocol: as §1, §2, §3, §4, §5

[4] = tested on: U87 cells; assay: BME cell invasion assay, U87; assay type: cell-based, human; conditions: 1 μM, 24 h
Protocol: as §1, §2, §3, §4, §5

Molecule	remaining activity ([1]; 1.3 μM) [%]	Invasion Inhibition Index (%) [2] [%]	Invasion Inhibition Index (%) [3] [%]	Invasion Inhibition Index (%) [4] [%]	remaining activity ([1]; 1 μM, 1 h preincubation at 37° C.) [%]
COc1ccc(S(=O)(=O)N(CC(=O)NO)CC(C)C)cc1 [NNGH, N-isobutyl-N-(4-methoxyphenylsulfonyl) glycyl hydroxamic acid, reference compound]	2.29	–	–	–	–
Chlorotoxin [reference compound]	–	28.50	45.0	39.5	67.94
